IC50 and efflux ratio data for 27 compounds are collected here from patent US11834453B2, “Substituted pyrimido[5,4-d]pyrimidines as HER2 inhibitors” (Array BioPharma Inc., priority 2020, dated 2023).

Where two headings read alike, the source gives them in different places.

The target in series [1] is EGFR wild type (EGFR WT) (Homo sapiens (Human), UniProt P00533). Briefly: Cellular phosphorylation assay, EGF-stimulated EGFR phosphorylation in engineered NIH 3T3 cells, Phospho-EGFR DuoSet IC ELISA, Assay 5. The series is classed as cell-based. The procedure, abridged: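 NIH 3T3 cells expressing EGFR WT (20,000/well, attached overnight) were exposed to serially diluted compound for 1 h at 37 °C, then stimulated with 100 ng/ml rEGF for 10 min. Phospho-EGFR in lysates measured by sandwich ELISA optical density; IC50 from curves.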

The target in series [2] is ErbB2 with Exon 20 YVMA insertion (HER2-YVMA) (Homo sapiens (Human), UniProt P04626, INS775YVMA). The series can be described thus: Cellular phosphorylation assay, constitutive ErbB2 phosphorylation (Y1196) in engineered NIH 3T3 cells, Assay 4. The series is classed as cell-based. In short, it runs like this: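 Engineered NIH 3T3 cells expressing HER2-YVMA treated with compounds 1 h at 37 °C, then formaldehyde-fixed and methanol-permeabilized. pErbB2 Y1196 detected by in-cell infrared immunofluorescence, normalized to GAPDH. IC50 from the normalized curves.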

Series [3] deals with EGFR (Homo sapiens (Human), UniProt P00533). The series can be described thus: ErbB enzyme assay (CisBio HTRF KinEASE-TK), Assay 3. The series is classed as biochemical. In short, it runs like this: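 Kinase incubated 30 min at 22 °C with 250 nM biotinylated TK substrate, 1 mM ATP and serially diluted compound in 25 mM HEPES pH 7.4, 10 mM MgCl2, 0.01% Triton X-100, 2% DMSO. Phosphorylation read by HTRF (Sa-XL665/TK-Ab-Cryptate); IC50 from 4-parameter fit of percent of control.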

The target in series [4] is BCRP (Homo sapiens (Human), UniProt Q9UNQ0). Briefly: BCRP transfected MDCKII canine Mdr1 knockout permeability/efflux, Assay 9. Conditions: dog, Assay 9 Pe Ratio, efflux ratio Papp(B-A)/Papp(A-B), BCRP transfected MDCKII canine Mdr1 knockout.
Series [5] addresses ErbB2 WT (Homo sapiens (Human), UniProt P04626). The series can be described thus: ErbB enzyme assay (CisBio HTRF KinEASE-TK), Assay 2. The series is classed as biochemical. In short, it runs like this:
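ErbB2 phosphorylates 250 nM biotin-TK substrate at 1 mM ATP in 25 mM HEPES pH 7.4, 10 mM MgCl2, 0.01% Triton X-100 and 2% DMSO, for 30 min at 22 °C. Product is detected by HTRF with Sa-XL665 and TK-Ab-Cryptate. Percent of control is set by DMSO-only wells and pre-quenched wells.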

Series [6] addresses ErbB2 insYVMA (HER2-YVMA, SEQ ID NO: 2) (Homo sapiens, UniProt P04626, INS775YVMA/P1170A). Briefly: biochemical. Conditions: ErbB2 insYVMA enzyme assay.

Sequence of ErbB2 insYVMA (HER2-YVMA, SEQ ID NO: 2) (P04626 with tags, fused parts or gaps INS775YVMA/P1170A limits assumed): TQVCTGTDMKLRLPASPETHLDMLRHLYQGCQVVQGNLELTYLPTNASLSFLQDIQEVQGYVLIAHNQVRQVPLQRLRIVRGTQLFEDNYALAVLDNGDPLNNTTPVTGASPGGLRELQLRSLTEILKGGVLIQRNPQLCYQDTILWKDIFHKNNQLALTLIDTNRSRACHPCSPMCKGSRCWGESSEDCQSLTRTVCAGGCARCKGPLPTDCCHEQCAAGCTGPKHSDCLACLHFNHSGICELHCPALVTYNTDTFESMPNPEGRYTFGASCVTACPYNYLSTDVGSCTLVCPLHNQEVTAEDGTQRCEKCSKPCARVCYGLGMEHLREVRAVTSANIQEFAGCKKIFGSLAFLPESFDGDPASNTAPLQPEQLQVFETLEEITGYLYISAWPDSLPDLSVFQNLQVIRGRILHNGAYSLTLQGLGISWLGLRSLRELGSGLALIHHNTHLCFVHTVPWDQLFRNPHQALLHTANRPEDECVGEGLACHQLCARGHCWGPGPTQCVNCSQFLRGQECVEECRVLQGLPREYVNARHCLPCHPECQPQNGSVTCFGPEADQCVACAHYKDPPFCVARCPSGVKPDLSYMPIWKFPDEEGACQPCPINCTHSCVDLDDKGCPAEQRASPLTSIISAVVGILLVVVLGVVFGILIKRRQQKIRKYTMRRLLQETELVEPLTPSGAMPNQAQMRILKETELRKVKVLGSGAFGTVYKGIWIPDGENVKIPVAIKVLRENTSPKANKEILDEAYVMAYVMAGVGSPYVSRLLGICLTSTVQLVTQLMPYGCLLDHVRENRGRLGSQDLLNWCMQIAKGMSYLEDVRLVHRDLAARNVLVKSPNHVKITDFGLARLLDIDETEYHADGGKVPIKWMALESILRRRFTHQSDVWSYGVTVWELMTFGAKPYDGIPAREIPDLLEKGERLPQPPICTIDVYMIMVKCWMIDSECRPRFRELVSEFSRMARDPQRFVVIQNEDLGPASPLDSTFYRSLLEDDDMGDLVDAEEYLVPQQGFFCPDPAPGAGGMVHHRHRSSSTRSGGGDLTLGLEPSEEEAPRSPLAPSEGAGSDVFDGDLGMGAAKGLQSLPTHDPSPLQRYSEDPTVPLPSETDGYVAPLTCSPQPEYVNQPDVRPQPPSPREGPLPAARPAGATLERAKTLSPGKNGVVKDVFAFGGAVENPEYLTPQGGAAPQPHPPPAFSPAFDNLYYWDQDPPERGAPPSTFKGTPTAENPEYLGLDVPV
Sequence of ErbB2 WT (P04626 23-1255): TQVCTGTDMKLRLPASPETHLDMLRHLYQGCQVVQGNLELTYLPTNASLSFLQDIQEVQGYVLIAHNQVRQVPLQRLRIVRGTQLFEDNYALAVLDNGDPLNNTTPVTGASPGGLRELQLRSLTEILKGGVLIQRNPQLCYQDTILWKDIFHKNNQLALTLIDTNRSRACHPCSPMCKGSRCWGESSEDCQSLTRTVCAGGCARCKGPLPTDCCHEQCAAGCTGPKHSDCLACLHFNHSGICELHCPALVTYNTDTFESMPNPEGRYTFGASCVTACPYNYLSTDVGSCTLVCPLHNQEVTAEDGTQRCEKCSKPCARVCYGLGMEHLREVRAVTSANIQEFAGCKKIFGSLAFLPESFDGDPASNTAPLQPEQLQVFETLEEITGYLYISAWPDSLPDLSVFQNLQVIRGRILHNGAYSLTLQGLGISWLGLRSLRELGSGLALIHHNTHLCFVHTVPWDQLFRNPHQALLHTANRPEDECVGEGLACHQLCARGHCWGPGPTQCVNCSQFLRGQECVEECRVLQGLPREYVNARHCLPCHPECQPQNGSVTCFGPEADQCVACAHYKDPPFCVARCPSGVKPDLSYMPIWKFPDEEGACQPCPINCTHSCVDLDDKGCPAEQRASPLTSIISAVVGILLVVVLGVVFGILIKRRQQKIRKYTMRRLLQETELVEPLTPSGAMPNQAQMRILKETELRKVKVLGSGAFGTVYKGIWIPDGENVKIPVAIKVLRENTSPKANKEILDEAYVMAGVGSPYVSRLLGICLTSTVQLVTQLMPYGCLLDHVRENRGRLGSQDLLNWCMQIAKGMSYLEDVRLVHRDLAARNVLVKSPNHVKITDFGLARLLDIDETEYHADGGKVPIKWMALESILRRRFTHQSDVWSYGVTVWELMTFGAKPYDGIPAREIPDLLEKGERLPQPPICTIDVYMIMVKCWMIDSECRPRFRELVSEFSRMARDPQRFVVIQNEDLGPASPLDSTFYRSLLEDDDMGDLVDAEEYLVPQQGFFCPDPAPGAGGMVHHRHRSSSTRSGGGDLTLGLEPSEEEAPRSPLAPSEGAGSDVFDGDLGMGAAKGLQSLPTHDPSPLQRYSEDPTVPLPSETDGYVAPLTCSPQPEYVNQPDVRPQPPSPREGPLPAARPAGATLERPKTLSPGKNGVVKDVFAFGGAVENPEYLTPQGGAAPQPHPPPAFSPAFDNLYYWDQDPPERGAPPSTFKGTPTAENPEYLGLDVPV
Sequence of ErbB2 with Exon 20 YVMA insertion (HER2-YVMA) (P04626 other isoform, or with tags, fused parts or gaps ins YVMA behind 775): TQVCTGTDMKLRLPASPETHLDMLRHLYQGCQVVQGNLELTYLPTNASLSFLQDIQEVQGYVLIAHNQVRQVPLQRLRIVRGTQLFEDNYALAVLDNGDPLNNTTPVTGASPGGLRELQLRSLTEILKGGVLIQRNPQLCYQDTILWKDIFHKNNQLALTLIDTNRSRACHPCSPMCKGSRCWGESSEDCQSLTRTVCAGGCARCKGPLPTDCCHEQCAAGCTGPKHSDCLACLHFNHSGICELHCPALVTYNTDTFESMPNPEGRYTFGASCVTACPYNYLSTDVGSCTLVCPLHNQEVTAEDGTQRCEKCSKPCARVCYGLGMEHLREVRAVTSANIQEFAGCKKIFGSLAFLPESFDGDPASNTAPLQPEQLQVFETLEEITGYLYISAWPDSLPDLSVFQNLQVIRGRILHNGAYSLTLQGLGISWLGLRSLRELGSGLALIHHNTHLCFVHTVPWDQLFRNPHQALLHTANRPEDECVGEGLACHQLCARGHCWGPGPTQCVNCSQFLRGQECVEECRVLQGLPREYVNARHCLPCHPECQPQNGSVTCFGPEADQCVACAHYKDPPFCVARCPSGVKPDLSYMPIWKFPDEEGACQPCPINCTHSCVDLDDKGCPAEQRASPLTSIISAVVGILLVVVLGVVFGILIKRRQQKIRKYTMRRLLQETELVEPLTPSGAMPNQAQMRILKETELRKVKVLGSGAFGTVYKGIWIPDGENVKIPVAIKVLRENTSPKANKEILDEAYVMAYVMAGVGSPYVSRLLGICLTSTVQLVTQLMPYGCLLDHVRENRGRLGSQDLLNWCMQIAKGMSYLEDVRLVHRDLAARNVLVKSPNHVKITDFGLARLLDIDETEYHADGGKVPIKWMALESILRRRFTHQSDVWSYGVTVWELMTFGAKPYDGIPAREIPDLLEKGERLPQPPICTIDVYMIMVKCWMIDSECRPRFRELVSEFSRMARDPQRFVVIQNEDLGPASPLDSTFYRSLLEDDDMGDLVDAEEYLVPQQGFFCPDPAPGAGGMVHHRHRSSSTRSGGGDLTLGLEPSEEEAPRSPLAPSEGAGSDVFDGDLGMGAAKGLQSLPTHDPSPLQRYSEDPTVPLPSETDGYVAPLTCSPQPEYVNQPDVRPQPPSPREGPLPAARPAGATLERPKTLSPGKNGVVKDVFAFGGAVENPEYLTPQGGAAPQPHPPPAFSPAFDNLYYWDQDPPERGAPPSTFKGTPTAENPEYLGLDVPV
Sequence of EGFR wild type (EGFR WT) (P00533 25-1210): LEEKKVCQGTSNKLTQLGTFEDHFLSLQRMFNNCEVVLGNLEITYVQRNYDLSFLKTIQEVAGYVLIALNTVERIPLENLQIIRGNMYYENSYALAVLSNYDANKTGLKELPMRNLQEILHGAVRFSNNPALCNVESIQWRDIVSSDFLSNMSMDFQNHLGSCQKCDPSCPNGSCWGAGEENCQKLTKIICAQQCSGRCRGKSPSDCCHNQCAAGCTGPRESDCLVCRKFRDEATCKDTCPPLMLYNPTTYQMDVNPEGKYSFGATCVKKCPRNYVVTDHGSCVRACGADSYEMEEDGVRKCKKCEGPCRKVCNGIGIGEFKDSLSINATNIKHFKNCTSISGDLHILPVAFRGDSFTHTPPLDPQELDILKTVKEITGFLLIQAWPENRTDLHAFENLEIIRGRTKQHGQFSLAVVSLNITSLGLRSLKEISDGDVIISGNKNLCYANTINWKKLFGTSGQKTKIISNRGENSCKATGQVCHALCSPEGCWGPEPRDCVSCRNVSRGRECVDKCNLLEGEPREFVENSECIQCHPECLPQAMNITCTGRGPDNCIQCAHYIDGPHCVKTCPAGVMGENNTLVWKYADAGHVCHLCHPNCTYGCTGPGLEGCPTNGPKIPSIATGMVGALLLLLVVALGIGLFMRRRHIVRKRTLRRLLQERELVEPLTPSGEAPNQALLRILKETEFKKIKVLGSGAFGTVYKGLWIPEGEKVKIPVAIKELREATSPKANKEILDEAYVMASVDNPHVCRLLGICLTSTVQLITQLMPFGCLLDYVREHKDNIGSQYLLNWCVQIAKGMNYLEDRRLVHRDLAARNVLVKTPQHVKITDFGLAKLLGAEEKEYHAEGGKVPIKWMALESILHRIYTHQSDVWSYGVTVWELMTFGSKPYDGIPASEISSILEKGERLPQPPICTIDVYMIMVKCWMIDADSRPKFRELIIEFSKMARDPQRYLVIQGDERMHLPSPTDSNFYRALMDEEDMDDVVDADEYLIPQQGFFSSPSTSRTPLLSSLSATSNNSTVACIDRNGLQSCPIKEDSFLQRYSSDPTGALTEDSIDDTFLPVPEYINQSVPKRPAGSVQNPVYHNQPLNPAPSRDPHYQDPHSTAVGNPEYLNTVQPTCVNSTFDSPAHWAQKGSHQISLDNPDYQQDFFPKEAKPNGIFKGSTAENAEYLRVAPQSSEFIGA

For the compound `CON1CCN(c2ncc3ncnc(Nc4ccc(Oc5ccc6c(c5)ncn6C)c(Cl)c4)c3n2)CC1.O=C(O)C(F)(F)F` [Example 141, N-(3-chloro-4-((1-methyl-1H-benzo[d]imidazol-5-yl)oxy)phenyl)-6-(4-methoxypiperazin-1-yl)pyrimido[5,4-d]pyrimidin-4-amine 2,2,2-trifluoroacetate], the half-maximal inhibitory concentration (IC50) in series [1] is no less than 5000 nM; in series [2] it was 17.1 nM; in series [3], 4440 nM; in series [5], 25.9 nM; in series [6] (Assay 1 IC50 (nM)), 23.2 nM. In series [4], the efflux ratio at 2 h, 1 μM turned out to be 1.4.

`Cc1cc(Nc2ncnc3cnc(N4C[C@H]5C[C@@H]4C[C@H]5O)nc23)ccc1Oc1ccc2c(c1)ncn2C` [Example 459]: the IC50 in series [1] is no less than 5000 nM; in series [2], 45.1 nM; in series [3], no less than 10000 nM; in series [5], 36.6 nM; in series [6] (read-out: Assay 1 IC50), 18.7 nM.

`Cc1cc(Nc2ncnc3cnc(N4CCC(F)(F)[C@@H](O)C4)nc23)ccc1Oc1ccc2c(c1)ncn2C` [Example 460]: the IC50 in series [1] was no less than 5000 nM; in series [2], 88 nM; in series [3], no less than 10000 nM; in series [5], 89.7 nM; in series [6] (read-out: Assay 1 IC50), 59.1 nM.

As to `Cc1cc(Nc2ncnc3cnc(N4CCC[C@](C)(O)C4)nc23)ccc1Oc1ccc2c(c1)ncn2C` [Example 461], the IC50 in series [1] was no less than 5000 nM; in series [2], 46.5 nM; in series [3] it was no less than 10000 nM; in series [5] it was 31.9 nM; in series [6] (read-out: Assay 1 IC50), 20.5 nM.

In the case of `Cc1cc(Nc2ncnc3cnc(N4CC5CCOC5C4)nc23)ccc1Oc1ccc2c(c1)ncn2C` (stereo not shown) [Example 462], the half-maximal inhibitory concentration (IC50) was no less than 5000 nM in series [1]; 18.6 nM in series [2]; no less than 10000 nM in series [3]; 41.5 nM in series [5]; 20.3 nM in series [6] (read-out: Assay 1 IC50).

`Cc1cc(Nc2ncnc3cnc(N4CCP(C)(=O)CC4)nc23)ccc1Oc1ccc2c(c1)ncn2C` [Example 463]: the IC50 in series [1] is no less than 5000 nM; in series [2], 662 nM; in series [3], no less than 10000 nM; in series [5] it was 275 nM; in series [6] (read-out: Assay 1 IC50) it was 71.3 nM.

Regarding `Cc1cc(Nc2ncnc3cnc(N4CC5CC(C4)C5O)nc23)ccc1Oc1ccc2c(c1)ncn2C` (stereo not shown) [Example 464], the IC50 is no less than 5000 nM in series [1]; 83.1 nM in series [2]; no less than 10000 nM in series [3]; 60.2 nM in series [5]; 9.4 nM in series [6] (Assay 1 IC50 (nM)).

In the case of `Cc1cc(Nc2ncnc3cnc(N4CC5(CCC5O)C4)nc23)ccc1Oc1ccc2c(c1)ncn2C` (stereo not shown) [Example 465], the IC50 was no less than 5000 nM in series [1]; 67.8 nM in series [2]; no less than 10000 nM in series [3]; 47.6 nM in series [5]; 44.3 nM in series [6] (read-out: Assay 1 IC50).

Turning to `Cc1cc(Nc2ncnc3cnc(N4C[C@H]5COC[C@H]5C4)nc23)ccc1Oc1ccc2c(c1)ncn2C` [Example 466], the IC50 is no less than 5000 nM in series [1]; 16.2 nM in series [2]; no less than 10000 nM in series [3]; 61.3 nM in series [5]; 24.1 nM in series [6] (read-out: Assay 1 IC50).

For `Cc1cc(Nc2ncnc3cnc(N(C)[C@H]4C[C@@H](C(C)(C)O)C4)nc23)ccc1Oc1ccc2c(c1)ncn2C` [Example 467], the IC50 in series [1] was no less than 5000 nM; in series [2], 19.4 nM; in series [3], 4790 nM; in series [5], 34.5 nM; in series [6] (read-out: Assay 1 IC50), 26.4 nM.

Consider `Cc1cc(Nc2ncnc3cnc(N4C[C@@H](O)C(C)(C)C4)nc23)ccc1Oc1ccc2c(c1)ncn2C` [Example 468], for which the IC50 in series [1] is no less than 5000 nM; in series [2], 87.2 nM; in series [3] it was no less than 10000 nM; in series [5] it was 130 nM; in series [6] (read-out: Assay 1 IC50) it was 39.1 nM.

For the compound `Cc1cc(Nc2ncnc3cnc(N4C[C@@H]5C[C@H]4C[C@H]5O)nc23)ccc1Oc1ccc2c(c1)ncn2C` [Example 471], the IC50 in series [1] was no less than 5000 nM; in series [2], 42.5 nM; in series [3], no less than 10000 nM; in series [5], 49.4 nM; in series [6] (read-out: Assay 1 IC50), 7.1 nM.

`Cc1cc(Nc2ncnc3cnc(N4CCC(C)(C#N)C4)nc23)ccc1Oc1ccc2c(c1)ncn2C` (stereo not shown) [Example 475]: the IC50 is no less than 5000 nM in series [1]; 82.6 nM in series [2]; no less than 10000 nM in series [3]; 88.6 nM in series [5]; 22.4 nM in series [6] (read-out: Assay 1 IC50).

For the compound `Cc1cc(Nc2ncnc3cnc(N4CCN(CC(F)F)CC4)nc23)ccc1Oc1ccc2c(c1)ncn2C` [Example 477], the IC50 in series [1] was no less than 5000 nM; in series [2] it was 53.3 nM; in series [3], no less than 10000 nM; in series [5], 47.1 nM; in series [6] (read-out: Assay 1 IC50) it was 59.6 nM.

Take `CCN(CC(C)(C)O)c1ncc2ncnc(Nc3ccc(Oc4ccc5c(c4)ncn5C)c(C)c3)c2n1` [Example 478]: the IC50 in series [1] was no less than 5000 nM; in series [2], 109 nM; in series [3], no less than 10000 nM; in series [5], 41.6 nM; in series [6] (read-out: Assay 1 IC50), 27.9 nM.

On to `CN(CCC(C)(C)O)c1ncc2ncnc(Nc3ccc(Oc4ccc5c(c4)ncn5C)c(Cl)c3)c2n1` [Example 479], for which the IC50 was no less than 5000 nM in series [1]; 12.9 nM in series [2]; 2210 nM in series [3]; 24.4 nM in series [5]; 26.5 nM in series [6] (read-out: Assay 1 IC50).

Consider `Cn1cnc2cc(Oc3ccc(Nc4ncnc5cnc(N6CCC(C)(O)CC6)nc45)cc3Cl)ccc21` [Example 480], for which the IC50 was no less than 5000 nM in series [1]; 4.4 nM in series [2]; 5040 nM in series [3]; 23.3 nM in series [5]; 18.1 nM in series [6] (read-out: Assay 1 IC50).

Consider `Cc1cc(Nc2ncnc3cnc(N4C[C@H]5C[C@@H]4CO5)nc23)c(F)cc1Oc1ccc2c(c1)ncn2C` [Example 481], for which the IC50 in series [1] was no less than 5000 nM; in series [2], 74.2 nM; in series [3] it was no less than 10000 nM; in series [5], 41.2 nM; in series [6] (read-out: Assay 1 IC50) it was 29.4 nM.

With `Cc1cc(Nc2ncnc3cnc(N4CCC(C)(O)CC4)nc23)c(Cl)cc1Oc1ccc2c(c1)ncn2C` [Example 482], the half-inhibitory concentration (IC50) is no less than 5000 nM in series [1]; 229 nM in series [2]; no less than 10000 nM in series [3]; 446 nM in series [5]; 76.7 nM in series [6] (read-out: Assay 1 IC50).

As for `CCON1CCN(c2ncc3ncnc(Nc4ccc(Oc5ccc6c(c5)ncn6C)c(C)c4)c3n2)CC1` [Example 483], the IC50 in series [1] is no less than 5000 nM; in series [2], 58.6 nM; in series [3], no less than 10000 nM; in series [5], 262 nM; in series [6] (read-out: Assay 1 IC50) it was 76.5 nM.

Consider `Cn1cnc2cc(Oc3ccc(Nc4ncnc5cnc(N6CCN(CC(F)F)CC6)nc45)cc3Cl)ccc21` [Example 484], for which the IC50 is no less than 5000 nM in series [1]; 22.7 nM in series [2]; no less than 10000 nM in series [3]; 124 nM in series [5]; 34.4 nM in series [6] (read-out: Assay 1 IC50).

Consider `CON1CCN(c2ncc3ncnc(Nc4cc(C)c(Oc5ccc6c(c5)ncn6C)cc4F)c3n2)CC1` [Example 486], for which the IC50 in series [1] was no less than 5000 nM; in series [2], 133 nM; in series [3], no less than 10000 nM; in series [5], 138 nM; in series [6] (read-out: Assay 1 IC50), 29.6 nM.

For the compound `Cc1cc(Nc2ncnc3cnc(N4CC5(C4)CC(O)(C(F)(F)F)C5)nc23)ccc1Oc1ccc2c(c1)ncn2C` [Example 487], the IC50 is no less than 5000 nM in series [1]; 49.1 nM in series [2]; no less than 10000 nM in series [3]; 45.7 nM in series [5]; 62.1 nM in series [6] (read-out: Assay 1 IC50).

Turning to `Cc1cc(Nc2ncnc3cnc(N4C[C@@H](O)C5(CC5)C4)nc23)c(Cl)cc1Oc1ccc2c(c1)ncn2C` [Example 488], the IC50 in series [1] was no less than 5000 nM; in series [2], 118 nM; in series [3], no less than 10000 nM; in series [5], 174 nM; in series [6] (read-out: Assay 1 IC50), 73.8 nM.

Take `Cn1cnc2cc(Oc3ccc(Nc4ncnc5cnc(N6CC[C@@H]7COC[C@H]76)nc45)cc3Cl)ccc21` [Example 489]: the IC50 in series [1] was no less than 5000 nM; in series [2], 16.4 nM; in series [3], 3370 nM; in series [5], 9.7 nM; in series [6] (read-out: Assay 1 IC50) it was 17.7 nM.

With `Cc1cc(Nc2ncnc3cnc(N(C)CC(C)(C)O)nc23)c(F)cc1Oc1ccc2c(c1)ncn2C` [Example 491], the IC50 was no less than 5000 nM in series [1]; 78.6 nM in series [2]; no less than 10000 nM in series [3]; 36.9 nM in series [5]; 27.8 nM in series [6] (read-out: Assay 1 IC50).

Regarding `Cn1cnc2cc(Oc3ccc(Nc4ncnc5cnc(N6C[C@@H]7C[C@H]6C[C@H]7O)nc45)cc3Cl)ccc21` [Example 492], the IC50 in series [1] is no less than 5000 nM; in series [2] it was 37.2 nM; in series [3], 4730 nM; in series [5], 37.8 nM; in series [6] (read-out: Assay 1 IC50), 24.7 nM.
